Results on 9 compounds are retold here after US9040519B2, “Fused tetracyclic pyrido [4,3-B] indole and pyrido [3,4-B] indole derivatives and methods of use” (Medivation Technologies, Inc., priority 2010, dated 2015).

For assay [1], the target named is T1, human recombinant serotonin (5-Hydroxytryptamine) 5-HT7 receptor (Homo sapiens, UniProt P34969).
T1 construct: expressed in transfected cells; host or cells: CHO
Put plainly: Serotonin 5-HT7 radioligand binding ([3H]LSD). To be noted: compound at 0.1 μM, CHO cells; for inhibition at 0.1 µM: read-out: Percentage inhibition of ligand binding, Serotonin 5-HT7. Here is the method: To evaluate in radioligand binding assays the activity of compounds of the invention, human recombinant serotonin (5-Hydroxytryptamine) 5-HT7 receptor expressed in Chinese hamster ovary (CHO) cells (Roth, B. et al, J. Pharmacol. Exp. Ther. 268:1403, 1994; Shen, Y. et al, J. Biol. Chem. 268:18200, 1993) in a modified Tris-HCl buffer (50 mM Tris-HCl, pH 7.4, 10 mM MgCl2, 0.5 mM EDTA) was used. Compounds of invention were incubated with 5.5 nM [^3H] Lysergic acid diethylamide (LSD) for 2 h at 25° C. Non-specific binding was estimated in the presence of 10 μM Serotonin (5-HT). Receptor proteins were filtered and washed, the filters were then counted to determine [^3H]LSD specifically bound. Compounds were screened at 1 μM or lower, using 1% DMSO as vehicle. Biochemical assay results are presented as the percent inhibition of specific binding in Table 4.

The target in assay [2] is T2, human recombinant serotonin (5-Hydroxytryptamine) 5-HT2C receptor (Homo sapiens, UniProt P28335).
T2 construct: expressed in transfected cells; host or cells: CHO-K1
T2 sequence (P28335 33-458): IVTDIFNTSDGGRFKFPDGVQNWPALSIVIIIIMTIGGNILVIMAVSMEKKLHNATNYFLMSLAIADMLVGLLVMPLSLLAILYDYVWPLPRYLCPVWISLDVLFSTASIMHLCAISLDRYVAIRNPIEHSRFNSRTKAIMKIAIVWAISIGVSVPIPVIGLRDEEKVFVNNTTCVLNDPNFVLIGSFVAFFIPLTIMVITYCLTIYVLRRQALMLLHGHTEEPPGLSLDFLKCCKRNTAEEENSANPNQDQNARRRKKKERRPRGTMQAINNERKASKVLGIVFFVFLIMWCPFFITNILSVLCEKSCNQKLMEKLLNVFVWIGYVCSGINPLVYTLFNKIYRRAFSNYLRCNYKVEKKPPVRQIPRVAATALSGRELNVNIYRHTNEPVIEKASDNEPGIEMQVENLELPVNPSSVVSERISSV
Nature of the assay: Serotonin 5-HT2C radioligand binding ([3H]Mesulergine). The note with it: compound at 0.1 μM, CHO K1 cells; for inhibition at 0.1 µM: read-out: Percentage inhibition of ligand binding, Serotonin 5-HT2C. Here is the method: To evaluate in radioligand binding assays the activity of compounds of the invention, human recombinant serotonin (5-Hydroxytryptamine) 5-HT2C receptor expressed in Chinese hamster ovary (CHO) K1 cells (Wolf, W. et al, J. Neurochem. 69:1449, 1997) in a modified Tris-HCl buffer (50 mM Tris-HCl, pH 7.4, 0.1% Ascorbic Acid, 10 μM Pargyline) was used. Compounds of the invention were incubated with 1 nM [^3H]Mesulergine for 60 min at 25° C. Non-specific binding was estimated in the presence of 1 μM Mianserin. Receptor proteins were filtered and washed, the filters were then counted to determine [^3H]Mesulergine specifically bound. Compounds were screened at 1 μM or lower, using 1% DMSO as vehicle. Biochemical assay results are presented as the percent inhibition of specific binding in Table 4.

Assay [3] addresses T3, human recombinant dopamine D2L receptor (Homo sapiens, UniProt P14416).
T3 construct: expressed in transfected cells; host or cells: CHO
Nature of the assay: Dopamine D2L radioligand binding ([3H]Spiperone). The note with it: compound at 1 μM, CHO cells; for inhibition at 1 µM: read-out: Percentage inhibition of ligand binding, Dopamine D2L; for Percentage inhibition of ligand binding, Dopamine D2L: 1 µM. How it is done: To evaluate in radioligand binding assays the activity of compounds of the invention, human recombinant dopamine D2L receptor expressed in Chinese hamster ovary (CHO) cells (Grandy, D. et al, Proc. Natl. Acad. Sci. USA. 86:9762, 1989; Hayes, G. et al, Mol. Endocrinol. 6:920, 1992) in a modified Tris-HCl buffer (50 mM Tris-HCl, pH 7.4, 1.4 mM Ascorbic Acid, 0.001% BSA, 150 mM NaCl) was used. Compounds of the invention were incubated with 0.16 nM [^3H]Spiperone for 120 min at 25° C. Non-specific binding was estimated in the presence of 10 μM Haloperidol. Receptor proteins were filtered and washed, the filters were then counted to determine [^3H]Spiperone specifically bound. Compounds were screened at 1 μM or lower, using 1% DMSO as vehicle. Biochemical assay results are presented as the percent inhibition of specific binding in Table 3.

Assay [4] has as its target T4, human recombinant histamine H1 receptor (Homo sapiens, UniProt P35367).
T4 construct: expressed in transfected cells; host or cells: CHO-K1
Put plainly: Histamine H1 radioligand binding ([3H]Pyrilamine). To be noted: compound at 1 μM, 1.2 nM [3H]Pyrilamine, CHO K1 cells; for inhibition at 1 µM: read-out: Histamine H1 Binding (1 μM), percentage inhibition. Here is the method: To evaluate in radioligand binding assays the activity of compounds of the invention, human recombinant histamine H1 receptor expressed in Chinese hamster ovary (CHO) K1 cells (De Backer, M. et al, Biochem. Biophys. Res. Comm. 197(3):1601, 1993) in a modified Tris-HCl buffer (50 mM Tris-HCl, pH 7.4, 2 mM MgCl2, 100 mM NaCl, 250 mM Sucrose) was used. Compounds of the invention were incubated with 1.2 nM [^3H]Pyrilamine for 180 min at 25° C. Non-specific binding was estimated in the presence of 1 μM Pyrilamine. Receptor proteins were filtered and washed, the filters were then counted to determine [^3H]Pyrilamine specifically bound. Compounds were screened at 1 μM or lower, using 1% DMSO as vehicle. Biochemical assay results are presented as the percent inhibition of specific binding in Table 2.

In assay [5] the target is T5, human recombinant serotonin (5-Hydroxytryptamine) 5-HT6 receptor (Homo sapiens, UniProt P50406).
T5 construct: expressed in transfected cells; host or cells: HeLa
T5 sequence (P50406 whole entry): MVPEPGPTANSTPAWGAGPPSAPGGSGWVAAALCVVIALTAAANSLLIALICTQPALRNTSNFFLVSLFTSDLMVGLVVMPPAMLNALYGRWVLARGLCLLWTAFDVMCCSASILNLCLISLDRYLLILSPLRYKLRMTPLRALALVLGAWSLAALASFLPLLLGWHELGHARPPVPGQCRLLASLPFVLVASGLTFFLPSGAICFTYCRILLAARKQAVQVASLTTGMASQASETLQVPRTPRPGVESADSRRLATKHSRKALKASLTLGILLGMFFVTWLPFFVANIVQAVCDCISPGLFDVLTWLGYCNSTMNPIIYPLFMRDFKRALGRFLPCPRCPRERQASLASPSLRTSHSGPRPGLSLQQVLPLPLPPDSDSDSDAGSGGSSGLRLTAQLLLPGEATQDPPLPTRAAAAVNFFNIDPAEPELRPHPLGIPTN
Nature of the assay: Serotonin 5-HT6 radioligand binding ([3H]LSD). The note with it: compound at 0.1 μM, HeLa cells; for inhibition at 0.1 µM: read-out: Percentage inhibition of ligand binding, Serotonin 5-HT6; for Percentage inhibition of ligand binding, Serotonin 5-HT6: 0.1 µM. Here is the method:
To evaluate in radioligand binding assays the activity of compounds of the invention, human recombinant serotonin (5-Hydroxytryptamine) 5-HT6 receptor expressed in human HeLa cells (Monsma, F. Jr. et al, Mol. Pharmacol. 43:320, 1993) in a modified Tris-HCl buffer (50 mM Tris-HCl, pH 7.4, 150 mM NaCl, 2 mM Ascorbic Acid, 0.001% BSA) was used. Compounds of the invention were incubated with 1.5 nM [3H]Lysergic acid diethylamide (LSD) for 120 min at 37° C. Non-specific binding was estimated in the presence of 5 μM Serotonin (5-HT). Receptor proteins were filtered and washed, the filters were then counted to determine [3H]LSD specifically bound. Compounds were screened at 1 μM or lower, using 1% DMSO as vehicle. Biochemical assay results are presented as the percent inhibition of specific binding in Table 4.

In assay [6] the target is T6, human recombinant serotonin (5-Hydroxytryptamine) 5-HT2A receptor (Homo sapiens, UniProt P28223).
T6 construct: expressed in transfected cells; host or cells: CHO-K1
T6 sequence (P28223 whole entry): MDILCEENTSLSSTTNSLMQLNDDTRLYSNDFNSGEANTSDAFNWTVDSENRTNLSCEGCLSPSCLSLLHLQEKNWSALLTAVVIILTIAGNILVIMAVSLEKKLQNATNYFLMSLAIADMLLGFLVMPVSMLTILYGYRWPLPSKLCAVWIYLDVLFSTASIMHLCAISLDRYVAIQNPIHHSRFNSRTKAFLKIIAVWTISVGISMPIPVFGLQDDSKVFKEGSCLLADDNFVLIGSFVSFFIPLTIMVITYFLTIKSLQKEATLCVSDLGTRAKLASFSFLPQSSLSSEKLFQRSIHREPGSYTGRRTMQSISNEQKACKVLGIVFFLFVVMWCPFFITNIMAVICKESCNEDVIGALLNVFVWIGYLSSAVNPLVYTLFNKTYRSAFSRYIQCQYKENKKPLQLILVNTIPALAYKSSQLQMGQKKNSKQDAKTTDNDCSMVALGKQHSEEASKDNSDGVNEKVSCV
Put plainly: Serotonin 5-HT2A radioligand binding ([3H]Ketanserin). The note with it: compound at 0.1 μM, CHO K1 cells; for inhibition at 0.1 µM: read-out: Percentage inhibition of ligand binding, Serotonin 5-HT2A. Here is the method:
To evaluate in radioligand binding assays the activity of compounds of the invention, human recombinant serotonin (5-Hydroxytryptamine) 5-HT2A receptor expressed in Chinese hamster ovary (CHO) K1 cells (Bonhaus, D. et al, Br. J. Pharmacol. 115:622, 1995; Saucier, C. et al, J. Neurochem. 68:1998, 1997) in a 50 mM Tris-HCl buffer, pH 7.4, was used. Compounds of the invention were incubated with 0.5 nM [^3H]Ketanserin for 60 min at 25° C. Non-specific binding was estimated in the presence of 1 μM Mianserin. Receptor proteins were filtered and washed, the filters were then counted to determine [^3H]Ketanserin specifically bound. Compounds were screened at 1 μM or lower, using 1% DMSO as vehicle. Biochemical assay results are presented as the percent inhibition of specific binding in Table 4.

T1 sequence (P34969 whole entry): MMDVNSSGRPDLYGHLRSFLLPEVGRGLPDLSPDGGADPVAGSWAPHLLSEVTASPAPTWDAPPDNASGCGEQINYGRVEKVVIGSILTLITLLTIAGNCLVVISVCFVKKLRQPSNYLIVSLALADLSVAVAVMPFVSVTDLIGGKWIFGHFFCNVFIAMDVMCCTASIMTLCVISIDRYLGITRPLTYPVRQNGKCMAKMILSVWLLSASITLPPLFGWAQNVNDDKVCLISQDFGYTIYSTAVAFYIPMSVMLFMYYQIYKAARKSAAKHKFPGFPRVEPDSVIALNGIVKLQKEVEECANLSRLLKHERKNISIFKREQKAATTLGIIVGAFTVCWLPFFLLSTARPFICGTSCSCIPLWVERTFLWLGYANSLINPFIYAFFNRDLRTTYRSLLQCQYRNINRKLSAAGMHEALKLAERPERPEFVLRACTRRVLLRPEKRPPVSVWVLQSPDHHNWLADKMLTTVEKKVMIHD
T3 sequence (P14416 whole entry): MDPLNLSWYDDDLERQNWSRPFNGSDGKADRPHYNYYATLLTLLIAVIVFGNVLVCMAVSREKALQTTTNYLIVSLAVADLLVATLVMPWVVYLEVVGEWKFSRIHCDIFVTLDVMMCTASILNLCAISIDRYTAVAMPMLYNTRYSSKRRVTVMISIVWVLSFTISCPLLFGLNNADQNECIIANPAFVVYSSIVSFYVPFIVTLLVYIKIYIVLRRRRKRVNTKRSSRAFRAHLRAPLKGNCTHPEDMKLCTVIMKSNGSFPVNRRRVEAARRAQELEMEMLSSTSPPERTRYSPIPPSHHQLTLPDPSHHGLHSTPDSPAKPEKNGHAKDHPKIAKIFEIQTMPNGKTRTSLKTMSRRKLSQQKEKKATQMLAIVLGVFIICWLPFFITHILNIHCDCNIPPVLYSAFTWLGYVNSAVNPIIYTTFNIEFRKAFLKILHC
T4 sequence (P35367 whole entry): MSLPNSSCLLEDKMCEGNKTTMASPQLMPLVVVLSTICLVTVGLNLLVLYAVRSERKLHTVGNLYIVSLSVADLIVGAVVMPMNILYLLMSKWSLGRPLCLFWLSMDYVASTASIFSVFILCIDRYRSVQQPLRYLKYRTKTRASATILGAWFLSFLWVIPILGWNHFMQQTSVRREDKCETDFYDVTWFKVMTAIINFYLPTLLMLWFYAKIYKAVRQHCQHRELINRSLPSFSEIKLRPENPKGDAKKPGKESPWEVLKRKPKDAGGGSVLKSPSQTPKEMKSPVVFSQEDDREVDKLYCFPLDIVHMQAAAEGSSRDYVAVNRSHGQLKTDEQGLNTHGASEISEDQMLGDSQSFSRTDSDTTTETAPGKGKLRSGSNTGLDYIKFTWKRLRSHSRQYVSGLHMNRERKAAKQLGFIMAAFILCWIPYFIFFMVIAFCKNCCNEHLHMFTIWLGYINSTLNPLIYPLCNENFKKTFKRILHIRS

Turning to `Cc1ccc2c(c1)c1c3n2CC(c2ccc(F)cc2)=CCC3(C)CN(C)C1` (stereo not drawn) [Compound 1, 6-(4-fluoro-phenyl)-2,3a,10-trimethyl-1,2,3,3a,4,7-hexahydro-2,7a-diaza-cyclohepta[jk]fluorene], the inhibition at 0.1 µM is 26% in assay [1], 45% in assay [2], 8% in assay [5] and 56% in assay [6]. For the same compound, the inhibition at 1 µM is 12% in assay [3] and 11% in assay [4].
`Cc1ccc2c(c1)c1c3n2CC(c2ccc(F)cc2)CC3(C)CN(C)C1` (stereo not drawn) [Compound 2]: the “Percentage inhibition of ligand binding, Serotonin 5-HT7” value in assay [1] (0.1 µM) amounted to 34%. The “Percentage inhibition of ligand binding, Serotonin 5-HT2C” value in assay [2] (0.1 µM) was found to be 36%. The “Percentage inhibition of ligand binding, Dopamine D2L” value in assay [3] was determined as 13%. The “Histamine H1 Binding (1 μM), percentage inhibition” value in assay [4] is given as 63%. For the same compound, the “Percentage inhibition of ligand binding, Serotonin 5-HT6” value in assay [5] is 12%. Besides, the “Percentage inhibition of ligand binding, Serotonin 5-HT2A” value in assay [6] (0.1 µM) was determined as 49%.
Regarding `Cc1ccc2c(c1)c1c3n2CCC(c2ccc(F)cc2)CC3(C)CN(C)C1` (stereo not drawn) [Compound 3], the inhibition at 0.1 µM came out at 46% in assay [1], 39% in assay [2], 10% in assay [5] and 45% in assay [6]. The inhibition at 1 µM is 22% in assay [3] and 78% in assay [4].
Turning to `Cc1ccc2c(c1)c1c3n2CC(c2ccncc2)CC3(C)CN(C)C1` (stereo not drawn) [Compound 4], the inhibition at 0.1 µM in assay [1] amounted to 38%; in assay [2], 35%; in assay [5] it was 6%; in assay [6], 47%. The inhibition at 1 µM is 14% in assay [3] and 12% in assay [4].
With `Cc1ccc2c(c1)c1c3n2CC=C(c2ccc(F)cc2)CC3(C)CN(C)C1` (stereo not drawn) [Compound 5], the inhibition at 0.1 µM came out at 35% in assay [1], 32% in assay [2], 39% in assay [5] and 54% in assay [6]. The results for the inhibition at 1 µM in assay [3] and in assay [4] were 60% and 94%, respectively.
Regarding `Cc1ccc2c(c1)c1c3n2CC(c2ccc(F)cc2)CC3(C)CN(C)C1` (stereo not drawn) [Compound 6], the inhibition at 0.1 µM in assay [1] turned out to be 39%; in assay [2], 38%; in assay [6], 54%. Also, the “Percentage inhibition of ligand binding, Dopamine D2L” value in assay [3] was 6%. The inhibition at 1 µM in assay [4] came to 51%. The “Percentage inhibition of ligand binding, Serotonin 5-HT6” value in assay [5] amounted to 35%.
In the case of `Cc1ccc2c(c1)c1c3n2CC(c2ccc(F)cc2)CCC3(C)CN(C)C1` (stereo not drawn) [Compound 7, 6-(4-fluoro-phenyl)-2,3a,10-trimethyl-1,2,3,3a,4,5,6,7-octahydro-2,7a-diaza-cyclohepta[jk]fluorene], the inhibition at 0.1 µM in assay [1] was 54%; in assay [2], 41%; in assay [5] it was 6%; in assay [6] it was 57%. Further, the inhibition at 1 µM in assay [3] worked out at 0%; in assay [4], 19%.
As for `Cc1ccc2c(c1)c1c3n2CC(c2ccncc2)OC(C)CC3(C)CN(C)C1` (stereo not drawn) [Compound 8], the inhibition at 0.1 µM in assay [1] turned out to be 55%; in assay [2], 54%; in assay [5] it was 4%; in assay [6], 68%. For the same compound, the figures for the inhibition at 1 µM in assay [3] and in assay [4] were 13% and 6%, respectively.
As for `Cc1ccc2c(c1)c1c3n2CC(C)(c2ccncc2)OC(C)CC3(C)CN(C)C1` (stereo not drawn) [Compound 9], the inhibition at 0.1 µM in assay [1] came out at 57%; in assay [2], 73%; in assay [5], 21%; in assay [6], 87%. Moreover, the inhibition at 1 µM in assay [3] is 2%; in assay [4], 6%.
